This test has as its target human FLAP (Homo sapiens (Human), UniProt P20292). The test is described as follows: FLAP binding assay (HTRF format). The note with it: human FLAP wild type membranes, HTRF format; Table 6 (additional runs). The protocol: The ability of the compounds of the present invention to treat a FLAP-mediated disease and/or disorder, or associated symptoms or complications thereof, was determined using the following procedures. Binding assay data represent the average value obtained from two different assay plates, with samples run in duplicate on each plate. Human whole blood assay data represent a single replicate on an assay plate using whole blood from at least one healthy donor.
Data are expressed as a HTRF ratio.

Where a name gives a salt, the structure may show the parent alone.

Sequence of human FLAP (P20292 whole entry): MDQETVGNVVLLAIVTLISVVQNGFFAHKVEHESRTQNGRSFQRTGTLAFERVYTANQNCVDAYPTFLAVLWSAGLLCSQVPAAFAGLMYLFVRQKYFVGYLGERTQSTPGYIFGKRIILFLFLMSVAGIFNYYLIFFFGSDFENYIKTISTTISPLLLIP

The Ki is the dissociation constant of the complex between target and ligand, obtained from inhibition or displacement. On to `Nc1cnc(-c2ccc(C3CCC3)c(OCc3ccc(C(=O)O)o3)c2F)cn1` [Example 85, 5-{[3-(5-Aminopyrazin-2-yl)-6-cyclobutyl-2-fluorophenoxy]methyl}furan-2-carboxylic acid], for which the Ki amounted to 28.1 nM.

Molecule `Nc1cnc(-c2ccc(C3CCC3)c(OCc3ccccc3)c2F)cn1` [Example 83, 5-[3-(Benzyloxy)-4-cyclobutyl-2-fluorophenyl]-pyrazin-2-amine] showed an inhibition constant Ki of 44.5 nM.

As for `Nc1cnc(-c2ccc(C3CCC3)c(OCc3cccnc3)c2F)cn1` [Compound 13, 5-[4-Cyclobutyl-2-fluoro-3-(pyridin-3-ylmethoxy)phenyl]pyrazin-2-amine], the Ki worked out at 27.1 nM.

In turn, `N#Cc1nc(N)cnc1-c1ccc(C2CCC2)c(OCc2cccc(C(=O)O)c2)c1F` [Example 174, 3-{[3-(5-Amino-3-cyanopyrazin-2-yl)-6-cyclobutyl-2-fluorophenoxy]methyl}benzoic acid] displayed a Ki of 3.9 nM.

The molecule `Cc1ccnc(Oc2c(C3CCC3)ccc(-c3cnc(N)cn3)c2F)n1` [Example 69, 5-{4-Cyclobutyl-2-fluoro-3-[(4-methylpyrimidin-2-yl)oxy]phenyl}pyrazin-2-amine] had a Ki of 14 nM.

In turn, `Nc1cnc(-c2ccc(C3CCC3)c(OCc3ccccn3)c2F)cn1` [Compound 24, 5-[4-Cyclobutyl-2-fluoro-3-(pyridin-2-ylmethoxy)phenyl]pyrazin-2-amine] had a Ki of 16.2 nM. This Ki and that of the molecule before are within 1.5-fold of each other.

In turn, `CC(C)(C)OC(=O)N1CCC(COc2c(C3CCC3)ccc(-c3cnc(N)cn3)c2F)CC1` [Example 74, tert-Butyl 4-{[3-(5-aminopyrazin-2-yl)-6-cyclobutyl-2-fluorophenoxy]methyl}piperidine-1-carboxylate] gave a Ki of 175 nM.

For `Nc1cnc(-c2ccc(C3CCC3)c(Oc3nccc(-c4ccccc4)n3)c2F)cn1` [Example 87, 5-{4-Cyclobutyl-2-fluoro-3-[(4-phenylpyrimidin-2-yl)oxy]phenyl}pyrazin-2-amine], the Ki amounted to 2.1 nM. This Ki is about 83-fold lower than that of the molecule before.

Turning to `Nc1cnc(-c2ccc(C3CCC3)c(OCc3cccc(F)c3)c2F)cn1` [Compound 29, 5-{4-Cyclobutyl-2-fluoro-3-[(3-fluorobenzyl)oxy]phenyl}pyrazin-2-amine], the Ki worked out at 24.6 nM.

With `CC(C)(C)OC(=O)COc1c(C2CCC2)ccc(-c2cnc(N)cn2)c1F` [Example 49, tert-Butyl [3-(5-aminopyrazin-2-yl)-6-cyclobutyl-2-fluorophenoxy]acetate], the Ki is ~134 nM.

In the case of `CS(=O)(=O)c1cccc(COc2c(C3CCC3)ccc(-c3cnc(N)cn3)c2F)c1` [Compound 6, 5-(4-Cyclobutyl-2-fluoro-3-{[3-(methylsulfonyl)benzyl]oxy}phenyl)pyrazin-2-amine], the affinity corresponds to a Ki of 13.6 nM.

In turn, `Nc1cnc(-c2ccc(C3CCC3)c(Oc3ccc(C(F)(F)F)cn3)c2F)cn1` [Example 113, 5-(4-Cyclobutyl-2-fluoro-3-{[5-(trifluoromethyl)pyridin-2-yl]oxy}phenyl)pyrazin-2-amine] displayed a Ki of 30.8 nM.

For `N#Cc1cc(Oc2c(C3CCC3)ccc(-c3cnc(N)cn3)c2F)ccn1` [Example 109, 4-[3-(5-Aminopyrazin-2-yl)-6-cyclobutyl-2-fluorophenoxy]pyridine-2-carbonitrile], the Ki is 11.2 nM.

`Nc1cnc(-c2ccc(C3CCC3)c(OCC3CCCNC3)c2F)cn1` (racemic) [Example 299, racemic 5-[4-Cyclobutyl-2-fluoro-3-(piperidin-3-ylmethoxy)phenyl]pyrazin-2-amine] gave a Ki of 1960 nM.

Consider `COC(=O)c1ccc(Oc2c(C3CCC3)ccc(-c3cnc(N)cn3)c2F)nc1` [Example 107, Methyl 6-[3-(5-aminopyrazin-2-yl)-6-cyclobutyl-2-fluorophenoxy]pyridine-3-carboxylate], for which the Ki worked out at 5.4 nM.

In turn, `Nc1cnc(-c2ccc(C3CCC3)c(Oc3ccc(S(F)(F)(F)(F)F)cc3)c2F)cn1` [Example 115, 5-{4-Cyclobutyl-2-fluoro-3-[4-(pentafluoro-lambda˜6˜-sulfanyl)phenoxy]phenyl}pyrazin-2-amine] showed a Ki of 53.7 nM. Against the preceding molecule, the Ki is about 9.9-fold higher.

For the molecule `COc1cnc(Oc2c(C3CCC3)ccc(-c3cnc(N)cn3)c2F)nc1` [Example 94, 5-{4-Cyclobutyl-2-fluoro-3-[(5-methoxypyrimidin-2-yl)oxy]phenyl}pyrazin-2-amine], affinity was put at a Ki of 44.5 nM.

On to `Nc1cnc(-c2ccc(C3CCC3)c(Oc3ccc(C(=O)O)cn3)c2F)cn1` [Example 154, 6-[3-(5-Aminopyrazin-2-yl)-6-cyclobutyl-2-fluorophenoxy]pyridine-3-carboxylic acid], for which affinity was put at a Ki of 17.6 nM.

As for `COc1c(C2CCC2)ccc(-c2cnc(N)cn2)c1F` [A, 5-(4-Cyclobutyl-2-fluoro-3-methoxyphenyl)pyrazin-2-amine], the inhibition constant (Ki) was 52.6 nM.

For the molecule `Nc1cnc(-c2ccc(C3CCC3)c(OCC3CCNCC3)c2F)cn1` [Example 298, 5-[4-Cyclobutyl-2-fluoro-3-(piperidin-4-ylmethoxy)phenyl]pyrazin-2-amine hydrogen chloride salt], the Ki was 868 nM. This Ki lies about 17-fold higher than the previous one.

`Nc1cnc(-c2ccc(C3CCC3)c(O)c2F)cn1` [B, 3-(5-Aminopyrazin-2-yl)-6-cyclobutyl-2-fluorophenol] gave a Ki of 83.9 nM.

Molecule `COc1cc(Oc2c(C3CCC3)ccc(-c3cnc(N)cn3)c2F)nc(N)n1` [Example 99, 4-[3-(5-Aminopyrazin-2-yl)-6-cyclobutyl-2-fluorophenoxy]-6-methoxypyrimidin-2-amine] had a Ki of 5.5 nM. This Ki lies about 15-fold lower than the previous one.

Consider `Nc1cnc(-c2ccc(C3CCC3)c(OCc3ccc(Br)cc3)c2F)cn1` [Example 340, 5-{3-[(4-Bromobenzyl)oxy]4-cyclobutyl-2-fluorophenyl}pyrazin-2-amine], for which the Ki amounted to 650 nM.

Molecule `Nc1cnc(-c2ccc(C3CCC3)c(Oc3cccc(C(F)(F)F)n3)c2F)cn1` [Example 102, 5-(4-Cyclobutyl-2-fluor-3-{[6-(trifluoromethyl)pyridin-2-yl]oxy}phenyl)pyrazin-2-amine] had an inhibitory constant (Ki) of 1.8 nM.

Turning to `CSc1ccnc(Oc2c(C3CCC3)ccc(-c3cnc(N)cn3)c2F)n1` [Example 88, 5-(4-Cyclobutyl-2-fluoro-3-{[4-(methylsulfanyl)pyrimidin-2-yl]oxy}phenyl)pyrazin-2-amine], the Ki amounted to 3.5 nM.

`CC(C)(C)OC(=O)N1CCCC(COc2c(C3CCC3)ccc(-c3cnc(N)cn3)c2F)C1` (stereo not shown) [Example 249, tert-Butyl 3-((3-(5-aminopyrazin-2-yl)-6-cyclobutyl-2-fluorophenoxy)methyl)piperidine-1-carboxylate] came in with a Ki of 282 nM. Compared with the last molecule, the Ki is about 81-fold higher.

As for `CNS(=O)(=O)c1ccc(COc2c(C3CCC3)ccc(-c3cnc(N)cn3)c2F)cc1` [Compound 27, 4-{[3-(5-Aminopyrazin-2-yl)-6-cyclobutyl-2-fluorophenoxy]methyl}-N-methylbenzenesulfonamide], the Ki worked out at 6.4 nM.

With `Nc1cnc(-c2ccc(C3CCC3)c(Oc3ccc(C(F)(F)F)nn3)c2F)cn1` [Example 106, 5-(4-Cyclobutyl-2-fluoro-3-{[6-(trifluoromethyl)pyridazin-3-yl]oxy}phenyl)pyrazin-2-amine], the Ki was determined as 12.3 nM.

In the case of `Nc1cnc(-c2ccc(C3CCC3)c(OCc3cc(S(F)(F)(F)(F)F)ccc3F)c2F)cn1` [Example 77, 5-(4-Cyclobutyl-2-fluoro-3-{[2-fluoro-5-(pentafluoro-lambda˜6˜-sulfanyl)benzyl]oxy}phenyl)pyrazin-2-amine], the inhibition constant Ki was ~200 nM.

With `COc1nc(N)cc(Oc2c(C3CCC3)ccc(-c3cnc(N)cn3)c2F)n1` [Example 100, 6-[3-(5-Aminopyrazin-2-yl)-6-cyclobutyl-2-fluorophenoxy]-2-methoxypyrimidin-4-amine], the Ki worked out at 1.2 nM.

`Nc1cnc(-c2ccc(C3CCC3)c(OCc3ccccc3F)c2F)cn1` [Compound 30, 5-{4-Cyclobutyl-2-fluoro-3-[(2-fluorobenzyl)oxy]phenyl}pyrazin-2-amine] returned a Ki of 33.5 nM.

`Nc1cnc(-c2ccc(C3CCC3)c(OCc3ccc(C(F)(F)F)cc3)c2F)cn1` [Compound 1, 5-(4-Cyclobutyl-2-fluoro-3-{[4-(trifluoromethyl)benzyl]oxy}phenyl)pyrazin-2-amine] yielded a Ki of 62.8 nM.

Molecule `Nc1cnc(-c2ccc(C3CCC3)c(OCC3CCCCC3)c2F)cn1` [Example 71, 5-[4-Cyclobutyl-3-(cyclohexylmethoxy)-2-fluorophenyl]pyrazin-2-amine] came in with a Ki of 421 nM.

Take `Nc1cnc(-c2ccc(C3CCC3)c(OCC3CCOCC3)c2F)cn1` [Example 264, 5-[4-Cyclobutyl-2-fluoro-3-(tetrahydro-2H-pyran-4-ylmethoxy)phenyl]pyrazin-2-amine]: the Ki turned out to be 101 nM.

As for `N#Cc1ccccc1COc1c(C2CCC2)ccc(-c2cnc(N)cn2)c1F` [Compound 18, 2-{[3-(5-Aminopyrazin-2-yl)-6-cyclobutyl-2-fluorophenoxy]methyl}benzonitrile], the Ki was determined as 59 nM. Against the preceding molecule, the Ki is about 1.7-fold lower.

Consider `Nc1cnc(-c2ccc(C3CCC3)c(OCc3ccncc3)c2F)cn1` [Compound 14, 5-[4-Cyclobutyl-2-fluoro-3-(pyridin-4-ylmethoxy)phenyl]pyrazin-2-amine], for which affinity was put at a Ki of 22.6 nM.

Molecule `Nc1cnc(-c2ccc(C3CCC3)c(Oc3ncccc3C(F)(F)F)c2F)cn1` [Example 121, 5-(4-Cyclobutyl-2-fluoro-3-{[3-(trifluoromethyl)pyridin-2-yl]oxy}phenyl)pyrazin-2-amine] displayed a Ki of 7.2 nM.

In turn, `Nc1cnc(-c2ccc(C3CCC3)c(OCC(=O)O)c2F)cn1` [Example 50, [3-(5-Aminopyrazin-2-yl)-6-cyclobutyl-2-fluorophenoxy]acetic acid] yielded a Ki of 787 nM.

As to `Nc1cnc(-c2ccc(C3CCC3)c(Oc3nccc(N)n3)c2F)cn1` [Example 119, 2-[3-(5-Aminopyrazin-2-yl)-6-cyclobutyl-2-fluorophenoxy]pyrimidin-4-amine], the affinity corresponds to a Ki of 6.6 nM.

In turn, `Nc1cnc(-c2ccc(C3CCC3)c(Oc3ncc(C(F)(F)F)cn3)c2F)cn1` [Example 104, 5-(4-Cyclobutyl-2-fluoro-3-{[5-(trifluoromethyl)pyrimidin-2-yl]oxy}phenyl)pyrazin-2-amine] came in with a Ki of 18.3 nM.

For the origin of these results see US9732093B2, “FLAP modulators” (JANSSEN PHARMACEUTICA NV, priority 2013, dated 2017).
